Biological target: Substance-P receptor (Homo sapiens, UniProt P25103)
Experiment: Binding affinity towards Tachykinin receptor 1 expressed in CHO cells using [3H][Pro9]-SP as radioligand
Type: cell-based

Chain of Substance-P receptor (P25103 whole entry): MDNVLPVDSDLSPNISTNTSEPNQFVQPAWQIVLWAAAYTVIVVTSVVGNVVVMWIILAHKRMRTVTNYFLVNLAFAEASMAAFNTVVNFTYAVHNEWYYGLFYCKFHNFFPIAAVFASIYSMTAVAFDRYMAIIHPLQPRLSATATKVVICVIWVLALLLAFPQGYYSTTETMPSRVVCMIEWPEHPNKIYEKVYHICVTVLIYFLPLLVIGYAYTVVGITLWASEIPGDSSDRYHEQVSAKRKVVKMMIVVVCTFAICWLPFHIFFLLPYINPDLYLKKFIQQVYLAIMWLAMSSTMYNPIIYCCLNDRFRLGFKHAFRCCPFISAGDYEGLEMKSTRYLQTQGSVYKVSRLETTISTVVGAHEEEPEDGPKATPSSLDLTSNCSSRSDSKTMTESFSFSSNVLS

Ki [µM]	SMILES
0.15	CNC(c1ccccc1)C1(NCc2ccccc2OC)CC1 (configuration not stated)
0.62	CNC(c1ccccc1)C1(NCc2cc(C(F)(F)F)cc(C(F)(F)F)c2)CC1 (racemic)

From ChEMBL document CHEMBL1134216, “Synthesis, modelling and NK1 antagonist evaluation of a non-rigid cyclopropane-containing analogue of CP-99,994” (Bioorg Med Chem Lett, 2001)
